The text below walks through data of patent US20130011473A1, “Preparation Method Of The Solid Formulation Of Clopidogrel Bisulfate” (priority 2010, published 2013).

Molecules are shown by their SMILES. Structures can show the parent of a compound that is named as a salt. Where two headings read alike, the source gives them in different places.

The subject of one series is phosphodiesterase. To be noted: cited from earlier work.

For `COC(=O)[C@H](c1ccccc1Cl)N1CCc2sccc2C1` [Clopidogrel], the phosphodiesterase activity result in the series with phosphodiesterase is listed as “did not inhibit”.
As for `COC(=O)[C@H](c1ccccc1Cl)N1CCc2sccc2C1` [Clopidgrel salt, methyl(+)-(S)-α(2-chlorophenyl)-6,7-dihydrothieno[3,2-c]pyridine-5(4H)-acetate sulfate (1:1)], the angle of repose was 40 (after being mixed with Colloidal Silicon Dioxide) and “greater than 45” (as is).
